Here are results for five compounds from patent US12703729B2, “GIP agonist compounds and methods” (Zealand Pharma A/S, priority 2014, dated 2026).

Series [1] is described as follows: in vivo. The following applies: male, C57BL/6J, mouse; for bioavailability: Bioavailability s.c.; for half-life: 200 nmol/kg.
In series [2] the target is T1, human GIP R (Homo sapiens, UniProt P48546).
T1 sequence (P48546 22-466): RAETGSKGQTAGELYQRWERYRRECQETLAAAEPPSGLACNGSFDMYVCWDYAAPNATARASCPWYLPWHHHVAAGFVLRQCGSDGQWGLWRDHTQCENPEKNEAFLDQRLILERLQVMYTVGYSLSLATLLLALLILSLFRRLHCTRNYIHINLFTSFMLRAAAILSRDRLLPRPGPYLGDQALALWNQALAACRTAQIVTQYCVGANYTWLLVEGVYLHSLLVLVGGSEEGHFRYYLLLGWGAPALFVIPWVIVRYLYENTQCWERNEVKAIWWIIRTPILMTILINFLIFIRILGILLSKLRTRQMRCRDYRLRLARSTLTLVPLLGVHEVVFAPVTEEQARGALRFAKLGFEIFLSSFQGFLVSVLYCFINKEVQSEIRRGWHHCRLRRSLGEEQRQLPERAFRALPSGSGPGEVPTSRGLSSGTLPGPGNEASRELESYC
Nature of the series: cell-based.

For series [3], the target named is T2, human GIP receptor (GIP R) (Homo sapiens, UniProt P48546).
T2 sequence (P48546 22-466): T1 sequence (P48546 22-466)
Nature of the series: Activity assay at human GIP receptor, cAMP induction (AlphaScreen), Example 3. A general note: Bead proximity is the source of the signal in Alpha formats.

Series [4] concerns the target human GLP-1 receptor (GLP-1R) (Homo sapiens, UniProt P43220). Nature of the series: Activity assay at human GLP-1 receptor, cAMP induction (AlphaScreen), Example 3.
Setting [5] is: iv, Terminal elimination half-life T½ i.v.
The mark [6] stands for this setting: sc, Terminal elimination half-life T½ s.c.

Starred links: 1 amine or outer side, 2 acyl side, 3 side chain; linkers in the order of their positions; H or OH if unused. Non-standard residues stand in square brackets, D forms with d. Residues, ends and D or L forms follow the SMILES beside them. Groups on a side chain read outwards from the residue. *: point of attachment. X1 = O=C(O)CCCCCCCCCCCCCCCCCCC(=O)N1CCN(CC(=O)*)CC1; C20 diacid = O=C(O)CCCCCCCCCCCCCCCCCCC(=O)*; γGlu = O=C(O)[C@H](CCC(=O)[*:2])N[*:1]; AEEA = NCCOCCOCC(=O)O; Aib = CC(C)(N)C(=O)O

Chain of human GLP-1 receptor (GLP-1R) (P43220 24-463): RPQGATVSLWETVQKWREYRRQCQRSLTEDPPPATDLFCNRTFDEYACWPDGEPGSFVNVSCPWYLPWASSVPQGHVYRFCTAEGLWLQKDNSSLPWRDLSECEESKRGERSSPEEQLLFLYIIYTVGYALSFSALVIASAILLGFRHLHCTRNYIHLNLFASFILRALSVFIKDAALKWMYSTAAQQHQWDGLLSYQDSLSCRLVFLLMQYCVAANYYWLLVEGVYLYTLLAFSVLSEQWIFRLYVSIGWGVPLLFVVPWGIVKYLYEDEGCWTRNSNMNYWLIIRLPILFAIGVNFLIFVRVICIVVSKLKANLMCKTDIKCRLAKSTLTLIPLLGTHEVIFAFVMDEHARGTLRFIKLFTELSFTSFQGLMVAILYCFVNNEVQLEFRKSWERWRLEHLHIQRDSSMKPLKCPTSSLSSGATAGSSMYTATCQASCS

For orientation: bioavailability means the share of a dose that reaches the circulation, judged against a reference dose that is usually intravenous. A low value points to poor availability. By half-life is commonly meant the time needed for the level to fall by half in the phase considered. Read a low half-life as rapid decline. In general, Tmax refers to the time from dosing to the highest level. What is called EC50 is the concentration at which the effect is half-maximal. Low values mean a more potent agent, high ones a less potent agent. As to `CC[C@H](C)[C@H](NC(=O)[C@H](CO)NC(=O)[C@H](Cc1ccc(O)cc1)NC(=O)[C@H](CC(=O)O)NC(=O)[C@H](CO)NC(=O)[C@@H](NC(=O)[C@H](Cc1ccccc1)NC(=O)[C@@H](NC(=O)CNC(=O)[C@H](CCC(=O)O)NC(=O)C(C)(C)NC(=O)[C@@H](N)Cc1ccc(O)cc1)[C@@H](C)O)[C@@H](C)CC)C(=O)N[C@@H](CCC(=O)O)C(=O)N[C@@H](CC(C)C)C(=O)N[C@@H](CC(=O)O)C(=O)N[C@@H](CCCCN)C(=O)N[C@@H](CCCCNC(=O)COCCOCCNC(=O)COCCOCCNC(=O)CC[C@H](NC(=O)CCCCCCCCCCCCCCCCCCC(=O)O)C(=O)O)C(=O)N[C@@H](C)C(=O)N[C@@H](C)C(=O)N[C@@H](CCC(N)=O)C(=O)N[C@@H](CC(=O)O)C(=O)N[C@@H](Cc1ccccc1)C(=O)N[C@H](C(=O)N[C@@H](CC(N)=O)C(=O)N[C@@H](Cc1c[nH]c2ccccc12)C(=O)N[C@@H](CC(C)C)C(=O)N[C@@H](CC(C)C)C(=O)N[C@@H](C)C(=O)NCC(=O)N1CCC[C@H]1C(=O)N[C@@H](CO)C(=O)N[C@@H](CO)C(=O)NCC(=O)N[C@@H](C)C(=O)N1CCC[C@H]1C(=O)N1CCC[C@H]1C(=O)N1CCC[C@H]1C(=O)N[C@@H](CO)C(N)=O)C(C)C` [Compound 15] (H-Y[Aib]EGTFISDYSIELDKK([AEEA-AEEA-γGlu-C20 diacid])AAQDFVNWLLAGPSSGAPPPS-NH2), the bioavailability in series [1] was 87%. The half-life is 19.2 h in series [1] (setting [5]) and 16.7 h in series [1] (setting [6]). Besides, the time to peak (Tmax) in series [1] (sc) came out at 8 h. For the same compound, the EC50 in series [2] was 0.012 nM; in series [3], 0.024 nM; in series [4] it was greater than 100 nM.

With `CC[C@H](C)[C@H](NC(=O)[C@H](CO)NC(=O)[C@H](Cc1ccc(O)cc1)NC(=O)[C@H](CC(=O)O)NC(=O)[C@H](CO)NC(=O)[C@@H](NC(=O)[C@H](Cc1ccccc1)NC(=O)[C@@H](NC(=O)CNC(=O)[C@H](CCC(=O)O)NC(=O)C(C)(C)NC(=O)[C@@H](N)Cc1ccc(O)cc1)[C@@H](C)O)[C@@H](C)CC)C(=O)N[C@@H](CCC(=O)O)C(=O)N[C@@H](CC(C)C)C(=O)N[C@@H](CC(=O)O)C(=O)N[C@@H](CCCCN)C(=O)N[C@@H](CCCCNC(=O)COCCOCCNC(=O)COCCOCCNC(=O)CC[C@H](NC(=O)CCCCCCCCCCCCCCCCCCC(=O)O)C(=O)O)C(=O)N[C@@H](C)C(=O)N[C@@H](CCC(N)=O)C(=O)N[C@@H](CCCNC(=N)N)C(=O)N[C@@H](C)C(=O)N[C@@H](Cc1ccccc1)C(=O)N[C@H](C(=O)N[C@@H](CCC(=O)O)C(=O)N[C@@H](Cc1c[nH]c2ccccc12)C(=O)N[C@@H](CC(C)C)C(=O)N[C@@H](CC(C)C)C(=O)N[C@@H](C)C(=O)N[C@@H](CCC(N)=O)C(=O)NCC(=O)N1CCC[C@H]1C(=O)N[C@@H](CO)C(=O)N[C@@H](CO)C(=O)NCC(=O)N[C@@H](C)C(=O)N1CCC[C@H]1C(=O)N1CCC[C@H]1C(=O)N1CCC[C@H]1C(=O)N[C@@H](CO)C(N)=O)C(C)C` [Compound 17] (H-Y[Aib]EGTFISDYSIELDKK([AEEA-AEEA-γGlu-C20 diacid])AQRAFVEWLLAQGPSSGAPPPS-NH2), the bioavailability in series [1] came out at 56%. Besides, the half-life in series [1] (setting [5]) is 16.3 h; in series [1] (setting [6]), 19.9 h. In addition, the Tmax in series [1] (sc) came to 8 h. Besides, the EC50 is 0.007 nM in series [2], 0.016 nM in series [3] and greater than 3 nM in series [4].

For the compound `CC[C@H](C)[C@H](NC(=O)[C@H](Cc1ccccc1)NC(=O)[C@H](C)NC(=O)[C@H](CCCNC(=N)N)NC(=O)[C@H](CCC(N)=O)NC(=O)[C@H](C)NC(=O)[C@H](CCCCNC(=O)COCCOCCNC(=O)COCCOCCNC(=O)CC[C@H](NC(=O)CCCCCCCCCCCCCCCCCCC(=O)O)C(=O)O)NC(=O)[C@H](CCCCN)NC(=O)[C@H](CC(=O)O)NC(=O)[C@H](CC(C)C)NC(=O)[C@H](CCC(=O)O)NC(=O)[C@@H](NC(=O)[C@H](CO)NC(=O)[C@H](Cc1ccc(O)cc1)NC(=O)[C@H](CC(=O)O)NC(=O)[C@H](CO)NC(=O)[C@@H](NC(=O)[C@H](Cc1ccccc1)NC(=O)[C@@H](NC(=O)CNC(=O)[C@H](CCC(=O)O)NC(=O)C(C)(C)NC(=O)[C@@H](N)Cc1ccc(O)cc1)[C@@H](C)O)[C@@H](C)CC)[C@@H](C)CC)C(=O)N[C@@H](CCC(=O)O)C(=O)N[C@@H](Cc1c[nH]c2ccccc12)C(=O)N[C@@H](CC(C)C)C(=O)N[C@@H](CC(C)C)C(=O)N[C@@H](C)C(=O)N[C@@H](CCC(N)=O)C(=O)NCC(=O)N1CCC[C@H]1C(=O)N[C@@H](CO)C(=O)N[C@@H](CO)C(=O)NCC(=O)N[C@@H](C)C(=O)N1CCC[C@H]1C(=O)N1CCC[C@H]1C(=O)N1CCC[C@H]1C(=O)N[C@@H](CO)C(N)=O` [Compound 18] (H-Y[Aib]EGTFISDYSIELDKK([AEEA-AEEA-γGlu-C20 diacid])AQRAFIEWLLAQGPSSGAPPPS-NH2), the bioavailability in series [1] amounted to 78%. The half-life in series [1] (setting [5]) was 17.6 h; in series [1] (setting [6]), 15.1 h. The Tmax in series [1] (sc) was found to be 4 h. Besides, the EC50 is 0.006 nM in series [2], 0.007 nM in series [3] and greater than 3 nM in series [4].

`CC[C@H](C)[C@H](NC(=O)[C@H](CO)NC(=O)[C@H](Cc1ccc(O)cc1)NC(=O)[C@H](CC(=O)O)NC(=O)[C@H](CO)NC(=O)[C@@H](NC(=O)[C@H](Cc1ccccc1)NC(=O)[C@@H](NC(=O)CNC(=O)[C@H](CCC(=O)O)NC(=O)C(C)(C)NC(=O)[C@@H](N)Cc1ccc(O)cc1)[C@@H](C)O)[C@@H](C)CC)C(=O)N[C@@H](CCC(=O)O)C(=O)N[C@@H](CC(C)C)C(=O)N[C@@H](CC(=O)O)C(=O)N[C@@H](CCCCN)C(=O)N[C@@H](CCCCNC(=O)COCCOCCNC(=O)COCCOCCNC(=O)CN1CCN(C(=O)CCCCCCCCCCCCCCCCCCC(=O)O)CC1)C(=O)N[C@@H](C)C(=O)N[C@@H](CCC(N)=O)C(=O)N[C@@H](CCCCN)C(=O)N[C@@H](CCC(=O)O)C(=O)N[C@@H](Cc1ccccc1)C(=O)N[C@H](C(=O)N[C@@H](CCC(=O)O)C(=O)N[C@@H](Cc1c[nH]c2ccccc12)C(=O)N[C@@H](CC(C)C)C(=O)N[C@@H](CC(C)C)C(=O)N[C@@H](C)C(=O)N[C@@H](C)C(=O)NCC(=O)N1CCC[C@H]1C(=O)N[C@@H](CO)C(=O)N[C@@H](CO)C(=O)NCC(=O)N[C@@H](C)C(=O)N1CCC[C@H]1C(=O)N1CCC[C@H]1C(=O)N1CCC[C@H]1C(=O)N[C@@H](CO)C(N)=O)C(C)C` [Compound 21] (H-Y[Aib]EGTFISDYSIELDKK([AEEA-AEEA-X1])AQKEFVEWLLAAGPSSGAPPPS-NH2) displayed a bioavailability in series [1] of 67%. For the same compound, the half-life is 24.8 h in series [1] (setting [5]) and 21 h in series [1] (setting [6]). Also, the Tmax in series [1] (sc) stood at 8 h. For the same compound, the EC50 in series [2] is 0.007 nM; in series [3] it was 0.006 nM; in series [4] it was greater than 3 nM.

In series [1], `CC[C@H](C)[C@H](NC(=O)[C@H](Cc1ccccc1)NC(=O)[C@H](CC(=O)O)NC(=O)[C@H](CCC(N)=O)NC(=O)[C@H](C)NC(=O)[C@H](C)NC(=O)[C@H](CCCCNC(=O)COCCOCCNC(=O)COCCOCCNC(=O)CN1CCN(C(=O)CCCCCCCCCCCCCCCCCCC(=O)O)CC1)NC(=O)[C@H](CCCCN)NC(=O)[C@H](CC(=O)O)NC(=O)[C@H](CC(C)C)NC(=O)[C@H](CCC(=O)O)NC(=O)[C@@H](NC(=O)[C@H](CO)NC(=O)[C@H](Cc1ccc(O)cc1)NC(=O)[C@H](CC(=O)O)NC(=O)[C@H](CO)NC(=O)[C@@H](NC(=O)[C@H](Cc1ccccc1)NC(=O)[C@@H](NC(=O)CNC(=O)[C@H](CCC(=O)O)NC(=O)C(C)(C)NC(=O)[C@@H](N)Cc1ccc(O)cc1)[C@@H](C)O)[C@@H](C)CC)[C@@H](C)CC)C(=O)N[C@@H](CCC(=O)O)C(=O)N[C@@H](Cc1c[nH]c2ccccc12)C(=O)N[C@@H](CC(C)C)C(=O)N[C@@H](CC(C)C)C(=O)N[C@@H](C)C(=O)NCC(=O)N1CCC[C@H]1C(=O)N[C@@H](CO)C(=O)N[C@@H](CO)C(=O)NCC(=O)N[C@@H](C)C(=O)N1CCC[C@H]1C(=O)N1CCC[C@H]1C(=O)N1CCC[C@H]1C(=O)N[C@@H](CO)C(N)=O` [Compound 33] (H-Y[Aib]EGTFISDYSIELDKK([AEEA-AEEA-X1])AAQDFIEWLLAGPSSGAPPPS-NH2) displayed a bioavailability of 78%. Moreover, the values for the half-life in series [1] (setting [5]) and in series [1] (setting [6]) were 21.7 h and 18.7 h, respectively. Further, the Tmax in series [1] (sc) stood at 8 h. Further, the EC50 in series [2] was 0.014 nM; in series [3], 0.02 nM; in series [4] it was greater than 10 nM.
